Values quoted from earlier work, collected in patent publication US20190161549A1, “COMBINATION THERAPY WITH A MEK INHIBITOR, A PD-1 AXIS INHIBITOR, AND A VEGF INHIBITOR” (Genentech, Inc., priority 2016, published 2019).
Read-outs that look alike come from different tables or passages of the source.

Experiments:
[1] = system: human tumor cell lines; details: through inhibition of MEK1 and MEK2
[2] = system: human tumor xenograft models
[3] = system: cancer patients; details: 14 CRC patients
[4] = dose range 0.05 mg/kg (approximately 3.5 mg for 70 kg adult) to 80 mg
[5] = with or without high-fat meal, versus cobimetinib alone fasted
[6] = not given; remark: listed apart in the source

O=C(c1ccc(F)c(F)c1Nc1ccc(I)cc1F)N1CC(O)([C@@H]2CCCCN2)C1 [cobimetinib, (S)[3,4-Difluoro-2-(2-fluoro-4-iodophenylamino)phenyl][3-hydroxy-3-(piperidin-2-yl]azetidin-1-yl) methanone]
proliferation of a variety of human tumor cell lines [1]: inhibits proliferation | ERK phosphorylation in xenograft tumor models [2]: inhibits ERK phosphorylation | response in colorectal cancer (CRC) patients [3]: all patients experienced progressive disease | dose proportionality of pharmacokinetics [4]: linear pharmacokinetics | effect of proton pump inhibitor rabeprazole on pharmacokinetics [5]: minimal effect

atezolizumab: anti-PD-L1 antibody, CAS Registry Number: 1422185-06-5
Kaplan-Meier estimated overall 24-week progression-free survival (PFS) rate (Study PCD4989g, 95% CI: 12%, 53%): 33% | anti-tumor activity (across doses from 1 to 20 mg/kg): has been observed | exposure of fixed dose 800 mg q2w versus 1200 mg q3w ([6]; 800 mg every two weeks (equivalent to 10 mg/kg q2w)): equivalent exposure | dose proportionality of pharmacokinetics ([6]; doses ≥1 mg/kg every three weeks (q3w)): linear
